From patent publication US20210238201A1, “ANTIMICROBIAL COMPOUNDS AND COMPOSITIONS” (AGROFRESH INC., priority 2020, published 2021) come the findings set out here.

Converted amounts (≈) assume the structure as drawn.

Assay [1] has as its system Penicillium expansum. Put plainly: in vitro inhibition assay for volatile antimicrobial compounds (headspace, PDA agar). Format: cell-based. Particulars: volatile headspace exposure. The procedure:
[The procedure below names another organism; the source lists this organism under the same test.] (§1) 12-well (6.5 ml volume per well) microtiter plates are used for the in vitro inhibition assay for volatile antimicrobial compounds. A 3-ml volume of full-strength Potato Dextrose Agar (PDA) is added to each well. After cooling, 1 μL of 1×10^5 spores per ml Botrytis cinerea (ATCC #204446) spore suspension is spot pipetted to the agar in the center of the well. Whatman #1 filter disks (1.5 cm; Cat. No. 1001-0155) are placed on the underside of a polyethylene PCR plate sealing film. For determination of the minimum inhibitory concentration (MIC), test compounds are diluted in acetone, in duplicate, and 50 μli of the compound solution is added to disks at concentrations that can vary from 0.001 mg/l to 1142.9 mg/l. The acetone is permitted to evaporate for 5 minutes. The headspace around the Botrytis cinerea inoculum is then sealed inside the well by the film with the adhering disk containing the antimicrobial, anti-decay, anti-spoilage, or pathogen control agent. Plates are inverted to prevent any possibility of the chemical from flaking from the disk and falling onto the inoculated agar.

Assay [2] has as its system Botrytis cinerea (ATCC #204446). The description is as above. It is filed as cell-based. Particulars: volatile headspace exposure, 3 days at 23° C.; for MIC / EC50: Botrytis cinerea, ATCC204446, 72 h; for EC50: growth relative to control. How it is done: as §1

As to `Fc1ccc2c(c1)COB2OCc1ccc(COB2OCc3cc(F)ccc32)cc1` [Compound 14, 1,4-bis(((5-fluorobenzo[c][1,2]oxaborol-1(3H)-yl)oxy)methyl)benzene], in assay [1], a half-maximal effect (EC50) was put at 1.7 µg/mL (≈ 4.19 µM) and it took 17.9 µg/mL (≈ 44.1 µM) to inhibit growth (MIC). Also, in assay [2], the MIC worked out at 1.1 µg/mL (≈ 2.71 µM) and the EC50 came to 0.4 µg/mL (≈ 0.985 µM).
Taken in the same sequence, the figures for `Fc1ccc2c(c1)COB2OCc1cccc(COB2OCc3cc(F)ccc32)c1` [Compound 15, 1,3-bis(((5-fluorobenzo[c][1,2]oxaborol-1(3H)-yl)oxy)methyl)benzene] were 2.5 µg/mL (≈ 6.16 µM), 17.9 µg/mL (≈ 44.1 µM), 2.2 µg/mL (≈ 5.42 µM) and 0.7 µg/mL (≈ 1.72 µM).
For `Fc1cc2c(cc1F)B(OCCOB1OCc3cc(F)c(F)cc31)OC2` [Compound 18, 1,2-bis((5,6-difluorobenzo[c][1,2]oxaborol-1(3H)-yl)oxy)ethane], in that order: greater than 35.7 µg/mL, greater than 35.7 µg/mL, 9 µg/mL (≈ 24.6 µM) and 3 µg/mL (≈ 8.2 µM).
For `Fc1ccc2c(c1)COB2OCCNCCNCCOB1OCc2cc(F)ccc21` [Compound 10, N^1,N^2-bis(2-((5-fluorobenzo[c][1,2]oxaborol-1(3H)-yl)oxy)ethyl)ethane-1,2-diamine], in that order: 0.9 µg/mL (≈ 2.16 µM), 8.9 µg/mL (≈ 21.4 µM), 0.6 µg/mL (≈ 1.44 µM) and 0.2 µg/mL (≈ 0.481 µM).
In assay [1], `Fc1ccc2c(c1)COB2NCCNB1OCc2cc(F)ccc21` [Compound 17, N^1,N^2-bis(5-fluorobenzo[c][1,2]oxaborol-1(3H)-yl)ethane-1,2-diamine] yielded an EC50 of 1.8 µg/mL (≈ 5.49 µM) and an MIC of 17.9 µg/mL (≈ 54.6 µM). In assay [2], this molecule gave a minimum inhibitory concentration (MIC) of 1.1 µg/mL (≈ 3.35 µM) and an EC50 of 0.4 µg/mL (≈ 1.22 µM).
In the case of `Clc1ccc2c(c1)COB2OCCOB1OCc2cc(Cl)ccc21` [Compound 19, 1,2-bis((5-chlorobenzo[c][1,2]oxaborol-1(3H)-yl)oxy)ethane], in assay [2], the “MIC Botrytis cinerea” value was 0 µg/mL.
On to `CC(C)(OB1OCc2ccccc21)C(C)(C)OB1OCc2ccccc21` [Compound 3, 1,1′-((2,3-dimethylbutane-2,3-diyl)bis(oxy))bis(1,3-dihydrobenzo[c][1,2]oxaborole)], for which, in assay [1], the half-maximal effective concentration (EC50) was determined as 11.1 µg/mL (≈ 31.7 µM) and it took 71.4 µg/mL (≈ 204 µM) to inhibit growth (MIC). In assay [2], the MIC worked out at 8.9 µg/mL (≈ 25.4 µM) and a half-maximal effect (EC50) was put at 2.1 µg/mL (≈ 6 µM).
In assay [1], `c1ccc2c(c1)COB2OB1OCc2ccccc21` [Compound 6, 1,1′-oxybis(1,3-dihydrobenzo[c][1,2]oxaborole)] gave an EC50 of 3.1 µg/mL (≈ 12.4 µM) and an MIC of 17.9 µg/mL (≈ 71.6 µM). In assay [2], the lowest concentration to inhibit growth (MIC) was 2.2 µg/mL (≈ 8.8 µM) and the 50% effective concentration (EC50) is 0.8 µg/mL (≈ 3.2 µM).
Taken in the same sequence, the figures for `c1ccc2c(c1)COB2OCCNCCNCCOB1OCc2ccccc21` [Compound 4, N^1,N^2-bis(2-(benzo[c][1,2]oxaborol-1(3H)-yloxy)ethyl)ethane-1,2-diamine] were 2 µg/mL (≈ 5.26 µM), 8.9 µg/mL (≈ 23.4 µM), 1.1 µg/mL (≈ 2.89 µM) and 0.4 µg/mL (≈ 1.05 µM).
Regarding `c1ccc2c(c1)COB2NCCNB1OCc2ccccc21` [Compound 5, N^1,N^2-bis(benzo[c][1,2]oxaborol-1(3H)-yl)ethane-1,2-diamine], in assay [1], the EC50 worked out at 3.3 µg/mL (≈ 11.3 µM) and it took 17.9 µg/mL (≈ 61.3 µM) to inhibit growth (MIC).
For `Fc1ccc2c(c1)COB2NCCCNB1OCc2cc(F)ccc21` [Compound 16, N^1,N^3-bis(5-fluorobenzo[c][1,2]oxaborol-1(3H)-yl)propane-1,3-diamine], the EC50 is 1 µg/mL (≈ 2.92 µM) in assay [1] and 0.3 µg/mL (≈ 0.877 µM) in assay [2]. Also, the MIC in assay [1] amounted to 8.9 µg/mL (≈ 26 µM); in assay [2], 1.1 µg/mL (≈ 3.22 µM).
In assay [1], `CC(C)(COB1OCc2cc(F)ccc21)COB1OCc2cc(F)ccc21` [Compound 8, 1,1′-((2,2-dimethylpropane-1,3-diyl)bis(oxy))bis(5-fluoro-1,3-dihydrobenzo[c][1,2]oxaborole)] showed an EC50 of 0.8 µg/mL (≈ 2.15 µM) and an MIC of 2.2 µg/mL (≈ 5.91 µM). In assay [2], this molecule showed an MIC of 0.6 µg/mL (≈ 1.61 µM) and an EC50 of 0.3 µg/mL (≈ 0.806 µM).

Broadly, the EC50 is the concentration that produces a half-maximal response. Read a low EC50 as higher potency in that assay. The MIC is the lowest concentration found to suppress growth. A high value points to a less susceptible organism.
